Test results taken from US11401278B2, “Macrocyclic indole derivatives” (The Broad Institute, Inc., priority 2017, dated 2022).
Where a name gives a salt, the structure may show the parent alone.

Tests used:
SUDHL10 = test: Induction of caspase-3/7 activity (Assay 4), SUDHL10; assay type: cell-based; details: caspase-3/7 induction, 3 hours, median
Outline: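 Caspase-3/7 activity measured by Caspase-Glo 3/7 luminescence in DLBCL cells after 3 h compound treatment at 37 °C. Medium-only background subtracted. EC50 fitted with C0 fixed at 1 and top set to the reference compound's plateau/max induction.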

BCL-2 = BCL-2 (Homo sapiens (Human), UniProt P10415); test: Protein-protein interaction assay BCL-2/Bad BH3 peptide (BCL-2 assay, TR-FRET); assay type: binding; details: His-BCL-2 / Bad BH3 peptide, median
Outline: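 His-BCL-2 (1-211, E. coli) at 1 nM preincubated 10 min at 22 °C with compound (11 concentrations, 0.1 nM-20 μM, duplicates), then 1 nM biotinylated Bad BH3 peptide added. After 1 h at 22 °C plus overnight at 4 °C, TR-FRET 665/620 ratio normalised to DMSO and no-BCL-2 controls, IC50 from 4-parameter fit.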

BCL-2, sequence (P10415 other isoform, or with tags, fused parts or gaps): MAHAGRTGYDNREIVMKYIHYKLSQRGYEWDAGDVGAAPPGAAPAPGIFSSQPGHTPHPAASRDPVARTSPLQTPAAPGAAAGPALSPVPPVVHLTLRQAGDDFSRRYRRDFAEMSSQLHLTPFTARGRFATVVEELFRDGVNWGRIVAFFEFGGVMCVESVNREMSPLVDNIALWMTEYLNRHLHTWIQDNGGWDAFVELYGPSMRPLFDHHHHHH

Row | Structure (SMILES) | EC50 (SUDHL10) [µM] | IC50 (BCL-2) [µM]
1 | Cc1c2c(nn1C)CN(C1CC1)S(=O)(=O)CCCn1c(C(=O)O)c(CCCOc3cccc4cc(F)ccc34)c3ccc(Cl)c-2c31 (single isomer, unassigned; enantiomer 1) [Example 42, (−)-4-chloro-14-cyclopropyl-7-{3-[(6-fluoro-1-naphthyl)oxy]propyl}-2,3-dimethyl-11,12,14,15-tetrahydro-2H,10H-pyrazolo[3′,4′:4,5][1,2,8]thiadiazacycloundecino[6,7,8-hi]indole-8-carboxylic acid 13,13-dioxide N-diethylamine salt (Enantiomer 1)] | 0.29 | 12
2 | Cc1c2c(nn1C)C(CCN1CCOCC1)N(C)S(=O)(=O)CCCn1c(C(=O)O)c(CCCOc3cccc4ccccc34)c3cccc-2c31 (single isomer, unassigned; enantiomer 1) [Example 45, 2,3,14-trimethyl-15-[2-(morpholin-4-yl)ethyl]-7-{3-[(naphthalen-1-yl)oxy]propyl}-13,13-dioxo-10,11,12,13,14,15-hexahydro-2H-13lambda^6-pyrazolo[3′,4′:4,5][1,2,8]thiadiazacycloundecino[6,7,8-hi]indole-8-carboxylic acid N-ethylethanamine Salt (Enantiomer 1)] | 23 | > 20
3 | Cc1c2c(nn1C)CNS(=O)(=O)CCCn1c(C(=O)O)c(CCCOc3cccc4cc(F)ccc34)c3ccc(Cl)c-2c31 (single isomer, unassigned; enantiomer 1) [Example 51, 4-chloro-7-{3-[(6-fluoronaphthalen-1-yl)oxy]propyl}-2,3-dimethyl-13,13-dioxo-10,11,12,13,14,15-hexahydro-2H-13lambda^6-pyrazolo[3′,4′:4,5][1,2,8]thiadiazacycloundecino[6,7,8-hi]indole-8-carboxylic acid (Enantiomer 1)] | 0.49 | > 20
4 | CCc1c2c(nn1C)CN(CC)S(=O)(=O)CCCn1c(C(=O)O)c(CCCOc3cccc4cc(F)ccc34)c3ccc(Cl)c-2c31 (single isomer, unassigned; enantiomer 1) [Example 57, (+)-4-chloro-3,14-diethyl-7-{3-[(6-fluoronaphthalen-1-yl)oxy]propyl}-2-methyl-13,13-dioxo-10,11,12,13,14,15-hexahydro-2H-13lambda^6-pyrazolo[3′,4′:4,5][1,2,8]thiadiazacycloundecino[6,7,8-hi]indole-8-carboxylic acid N-ethylethanamine Salt (Enantiomer 1)] | 0.11 | 12
5 | CCc1c2c(nn1C)C(CCC1CCOCC1)N(C)S(=O)(=O)CCCn1c(C(=O)O)c(CCCOc3cccc4cc(F)ccc34)c3ccc(Cl)c-2c31 (single isomer, unassigned; enantiomer 1) [Example 61, (+)-4-chloro-3-ethyl-7-{3-[(6-fluoronaphthalen-1-yl)oxy]propyl}-2,14-dimethyl-15-[2-(oxan-4-yl)ethyl]-13,13-dioxo-10,11,12,13,14,15-hexahydro-2H-13lambda^6-pyrazolo[3′,4′:4,5][1,2,8]thiadiazacycloundecino[6,7,8-hi]indole-8-carboxylic acid (Enantiomer 1)] | 0.024 | 16
6 | Cc1c2c(nn1C)C(CCN1CCOCC1)N(C)S(=O)(=O)CCCn1c(C(=O)O)c(CCCOc3cccc4cc(F)ccc34)c3ccc(Cl)c-2c31 (single isomer, unassigned; enantiomer 1) [Example 66, 4-chloro-7-{3-[(6-fluoronaphthalen-1-yl)oxy]propyl}-2,3,14-trimethyl-15-[2-(morpholin-4-yl)ethyl]-13,13-dioxo-10,11,12,13,14,15-hexahydro-2H-13lambda^6-pyrazolo[3′,4′:4,5][1,2,8]thiadiazacycloundecino[6,7,8-hi]indole-8-carboxylic acid (Enantiomer 1)] | 6 | > 20
7 | Cc1c2c(nn1C)CN(CCN1CCOCC1)S(=O)(=O)CCCn1c(C(=O)O)c(CCCOc3cccc4ccccc34)c3cccc-2c31 (single isomer, unassigned; enantiomer 2) [Example 3, 2,3-Dimethyl-14-[2-(morpholin-4-yl)ethyl]-7-{3-[(naphthalen-1-yl)oxy]propyl}-13,13-dioxo-10,11,12,13,14,15-hexahydro-2H-13λ^6-pyrazolo[3′,4′:4,5][1,2,8]thiadiazacycloundecino-[6,7,8-hi]indole-8-carboxylic acid-N-ethylethanamine salt (Enantiomer 2)] | > 33 | > 20
8 | CCc1c2c(nn1C)CN(C)S(=O)(=O)CCCn1c(C(=O)O)c(CCCOc3cccc4cc(F)ccc34)c3ccc(F)c-2c31 (single isomer, unassigned; enantiomer 2) [Example 9, (−)-3-Ethyl-4-fluoro-7-{3-[(6-fluoronaphthalen-1-yl)oxy]propyl}-2,14-dimethyl-13,13-dioxo-10,11,12,13,14,15-hexahydro-2H-13λ^6-pyrazolo[3′,4′:4,5][1,2,8]thiadiazacycloundecino-[6,7,8-hi]indole-8-carboxylic acid (Enantiomer 2)] | > 33 | > 20
9 | CCc1c2c(nn1C)CN(C)S(=O)(=O)CCCn1c(C(=O)O)c(CCCOc3cccc4cc(F)ccc34)c3ccc(Cl)c-2c31 (single isomer, unassigned; enantiomer 2) [Example 37, (−)-4-chloro-3-ethyl-7-{3-[(6-fluoronaphthalen-1-yl)oxy]propyl}-2,14-dimethyl-13,13-dioxo-10,11,12,13,14,15-hexahydro-2H-13lambda^6-pyrazolo[3′,4′:4,5][1,2,8]thiadiazacycloundecino-[6,7,8-hi]indole-8-carboxylic acid (Enantiomer 2)] | 12 | 20
10 | Cc1c2c(nn1C)CN(C)S(=O)(=O)CCCn1c(C(=O)O)c(CCCOc3cccc4cc(F)ccc34)c3ccc(F)c-2c31 (single isomer, unassigned; enantiomer 2) [Example 39, (+)-4-fluoro-7-{3-[(6-fluoronaphthalen-1-yl)oxy]propyl}-2,3,14-trimethyl-13,13-dioxo-10,11,12,13,14,15-hexahydro-2H-13lambda^6-pyrazolo[3′,4′:4,5][1,2,8]thiadiazacycloundecino-[6,7,8-hi]indole-8-carboxylic acid (Enantiomer 2)] | 0.73 | > 20
11 | Cc1c2c(nn1C)CN(C1CC1)S(=O)(=O)CCCn1c(C(=O)O)c(CCCOc3cccc4cc(F)ccc34)c3ccc(Cl)c-2c31 (single isomer, unassigned; enantiomer 2) [Example 43, (+)-4-chloro-14-cyclopropyl-7-{3-[(6-fluoro-1-naphthyl)oxy]propyl}-2,3-dimethyl-11,12,14,15-tetrahydro-2H,10H-pyrazolo[3′,4′:4,5][1,2,8]thiadiazacycloundecino[6,7,8-hi]indole-8-carboxylic acid 13,13-dioxide N-diethylamine salt (Enantiomer 2)] | 9.4 | > 20
12 | Cc1c2c(nn1C)CNS(=O)(=O)CCCn1c(C(=O)O)c(CCCOc3cccc4cc(F)ccc34)c3ccc(Cl)c-2c31 (single isomer, unassigned; enantiomer 2) [Example 52, 4-chloro-7-{3-[(6-fluoronaphthalen-1-yl)oxy]propyl}-2,3-dimethyl-13,13-dioxo-10,11,12,13,14,15-hexahydro-2H-13lambda^6-pyrazolo[3′,4′:4,5][1,2,8]thiadiazacycloundecino[6,7,8-hi]indole-8-carboxylic acid (Enantiomer 2)] | > 33 | > 20
13 | CCc1c2c(nn1C)C(CCC1CCOCC1)N(C)S(=O)(=O)CCCn1c(C(=O)O)c(CCCOc3cccc4cc(F)ccc34)c3ccc(Cl)c-2c31 (single isomer, unassigned; enantiomer 2) [Example 62, (−)-4-chloro-3-ethyl-7-{3-[(6-fluoronaphthalen-1-yl)oxy]propyl}-2,14-dimethyl-15-[2-(oxan-4-yl)ethyl]-13,13-dioxo-10,11,12,13,14,15-hexahydro-2H-13lambda^6-pyrazolo[3′,4′:4,5][1,2,8]thiadiazacycloundecino[6,7,8-hi]indole-8-carboxylic acid (Enantiomer 2)] | 6.8 | 14
14 | CCc1c2c(nn1C)C(CCC1CCOCC1)N(C)S(=O)(=O)CCCn1c(C(=O)O)c(CCCOc3cccc4cc(F)ccc34)c3ccc(Cl)c-2c31 (single isomer, unassigned; enantiomer 3) [Example 63, (+)-4-chloro-3-ethyl-7-{3-[(6-fluoronaphthalen-1-yl)oxy]propyl}-2,14-dimethyl-15-[2-(oxan-4-yl)ethyl]-13,13-dioxo-10,11,12,13,14,15-hexahydro-2H-13lambda^6-pyrazolo[3′,4′:4,5][1,2,8]thiadiazacycloundecino[6,7,8-hi]indole-8-carboxylic acid (Enantiomer 3)] | 0.042 | 19
15 | CCc1c2c(nn1C)C(CCC1CCOCC1)N(C)S(=O)(=O)CCCn1c(C(=O)O)c(CCCOc3cccc4cc(F)ccc34)c3ccc(Cl)c-2c31 (single isomer, unassigned; enantiomer 4) [Example 64, (−)-4-chloro-3-ethyl-7-{3-[(6-fluoronaphthalen-1-yl)oxy]propyl}-2,14-dimethyl-15-[2-(oxan-4-yl)ethyl]-13,13-dioxo-10,11,12,13,14,15-hexahydro-2H-13lambda^6-pyrazolo[3′,4′:4,5][1,2,8]thiadiazacycloundecino[6,7,8-hi]indole-8-carboxylic acid (Enantiomer 4)] | 1.6 | > 20
